Experimental data reported in US8952024B2, “Herbicidal pyrimidone derivatives” (E I du Pont de Nemours and Company, priority 2009, dated 2015).
Where two headings read alike, the source gives them in different places.

How the values were obtained:
Type in all cases: in vivo
rice (Oryza sativa) = assay: Test B flooded paddy test; details: Oryza sativa
Summary of the method: (§1)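 Seedlings reaching 2 leaves are flooded 3 cm deep; test material is delivered to that water, which stays at the same depth. Plants remain in a greenhouse 13–15 days and are then scored by eye versus controls from 0 to 100.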

[1] = tested on: ducksalad (Heteranthera limosa); assay: Test B flooded paddy test; details: Heteranthera limosa, 360 h
Summary of the method: as §1

[2] = tested on: barnyardgrass (Echinochloa crus-galli); assay: Test B flooded paddy test; details: Echinochloa crus-galli, 360 h
Summary of the method: as §1

[3] = tested on: umbrella sedge (Cyperus difformis); assay: Test B flooded paddy test; details: Cyperus difformis, 360 h
Summary of the method: as §1

[4] = tested on: wheat (Triticum aestivum); assay: Test A pre-/postemergence plant response; details: Triticum aestivum, 240 h; for plant injury at 125 g/ha: 125 g ai/ha; for plant injury at 500 g/ha: 500 g ai/ha
Summary of the method: (§2)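 Injury was scored visually after roughly ten days against untreated controls, 0 = no effect, 100 = complete control. Test chemicals in a surfactant-containing non-phytotoxic solvent were sprayed either onto soil preemergence or onto one- to two-leaf, 2–10 cm plants postemergence.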

[5] = tested on: giant foxtail (Setaria faberii); assay: Test A pre-/postemergence plant response; details: Setaria faberi, 240 h; for pest or weed control at 125 g/ha: 125 g ai/ha; for pest or weed control at 500 g/ha: 500 g ai/ha
Summary of the method: as §2

[6] = tested on: large crabgrass (Digitaria sanguinalis); assay: Test A pre-/postemergence plant response; details: Digitaria sanguinalis, 240 h; for pest or weed control at 125 g/ha: 125 g ai/ha; for pest or weed control at 500 g/ha: 500 g ai/ha
Summary of the method: as §2

[7] = tested on: pigweed (Amaranthus retroflexus); assay: Test A pre-/postemergence plant response; details: Amaranthus retroflexus, 240 h; for pest or weed control at 125 g/ha: 125 g ai/ha; for pest or weed control at 500 g/ha: 500 g ai/ha
Summary of the method: as §2

[8] = tested on: velvetleaf (Abutilon theophrasti); assay: Test A pre-/postemergence plant response; details: Abutilon theophrasti, 240 h; for pest or weed control at 125 g/ha: 125 g ai/ha; for pest or weed control at 500 g/ha: 500 g ai/ha
Summary of the method: as §2

[9] = tested on: barnyardgrass (Echinochloa crus-galli); assay: Test A pre-/postemergence plant response; details: Echinochloa crus-galli, 240 h; for pest or weed control at 125 g/ha: 125 g ai/ha; for pest or weed control at 500 g/ha: 500 g ai/ha
Summary of the method: as §2

corn (Zea mays) = assay: Test A pre-/postemergence plant response; details: Zea mays, 240 h; for Corn plant response rating (crop injury, 0 = no effect, 100 = complete kill) at 500 g/ha: 500 g ai/ha
Summary of the method: as §2

[10] = tested on: morningglory (Ipomoea spp.); assay: Test A pre-/postemergence plant response; details: Ipomoea, 240 h; for pest or weed control at 125 g/ha: 125 g ai/ha; for pest or weed control at 500 g/ha: 500 g ai/ha
Summary of the method: as §2

[11] = tested on: winter barley (Hordeum vulgare); assay: Test B postemergence plant response; details: Postemergence
Summary of the method: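 Plants at the 1- to 4-leaf stage (2 to 18 cm tall), grown in pots of peat moss/vermiculite medium with wetting agent and starter nutrients, received postemergence applications of test chemicals. After 13 to 15 days in a greenhouse, injury was rated visually against untreated controls on a 0 (no effect) to 100 (complete control) scale.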

## COc1ccc(-n2c(-c3ccccc3)ncc(C(=O)C3=C(O)CCCC3=O)c2=O)cc1 [Compound 4, 5-[(2-hydroxy-6-oxo-cyclohexen-1-yl)carbonyl]-3-(4-methoxyphenyl)-2-phenyl-4(3H)-pyrimidinone]
Rice (Oryza sativa); 250 g ai/ha, flooded paddy test, visual rating on 0 to 100 scale (0 no effect, 100 complete control) after 13 to 15 days, read-out: Plant response rating, Flood, Rice
  plant injury at 250 g/ha: 0%
Rice (Oryza sativa); Flood (flooded paddy test), 31 g ai/ha, scale of 0 to 100 where 0 is no effect and 100 is complete control, 13 to 15 days, read-out: Plant response rating, Rice
  plant injury at 31 g/ha: 0%
Rice (Oryza sativa); Flood (flooded paddy test), 62 g ai/ha, scale 0 to 100, 0 is no effect, 100 is complete control, 13 to 15 days, read-out: Plant response rating, Rice
  plant injury at 62 g/ha: 0%
Rice (Oryza sativa); Flood (flooded paddy test), 125 g ai/ha, scale 0 to 100, 0 is no effect, 100 is complete control, 13 to 15 days, read-out: Plant response rating, Rice
  plant injury at 125 g/ha: 0%
[1]; 250 g ai/ha, flooded paddy test, visual rating on 0 to 100 scale (0 no effect, 100 complete control) after 13 to 15 days, read-out: Plant response rating, Flood, Ducksalad
  pest or weed control at 250 g/ha: 85%
[1]; Flood (flooded paddy test), 31 g ai/ha, scale of 0 to 100 where 0 is no effect and 100 is complete control, 13 to 15 days, read-out: Plant response rating, Ducksalad
  pest or weed control at 31 g/ha: 20%
[1]; Flood (flooded paddy test), 62 g ai/ha, scale 0 to 100, 0 is no effect, 100 is complete control, 13 to 15 days, read-out: Plant response rating, Ducksalad
  pest or weed control at 62 g/ha: 40%
[1]; Flood (flooded paddy test), 125 g ai/ha, scale 0 to 100, 0 is no effect, 100 is complete control, 13 to 15 days, read-out: Plant response rating, Ducksalad
  pest or weed control at 125 g/ha: 75%
[2]; 250 g ai/ha, flooded paddy test, visual rating on 0 to 100 scale (0 no effect, 100 complete control) after 13 to 15 days, read-out: Plant response rating, Flood, Barnyardgrass
  pest or weed control at 250 g/ha: 20%
[2]; Flood (flooded paddy test), 31 g ai/ha, scale of 0 to 100 where 0 is no effect and 100 is complete control, 13 to 15 days, read-out: Plant response rating, Barnyardgrass
  pest or weed control at 31 g/ha: 0%
[2]; Flood (flooded paddy test), 62 g ai/ha, scale 0 to 100, 0 is no effect, 100 is complete control, 13 to 15 days, read-out: Plant response rating, Barnyardgrass
  pest or weed control at 62 g/ha: 0%
[2]; Flood (flooded paddy test), 125 g ai/ha, scale 0 to 100, 0 is no effect, 100 is complete control, 13 to 15 days, read-out: Plant response rating, Barnyardgrass
  pest or weed control at 125 g/ha: 0%
[3]; 250 g ai/ha, flooded paddy test, visual rating on 0 to 100 scale (0 no effect, 100 complete control) after 13 to 15 days, read-out: Plant response rating, Flood, Sedge, Umbrella
  pest or weed control at 250 g/ha: 90%
[3]; Flood (flooded paddy test), 31 g ai/ha, scale of 0 to 100 where 0 is no effect and 100 is complete control, 13 to 15 days, read-out: Plant response rating, Sedge, Umbrella
  pest or weed control at 31 g/ha: 50%
[3]; Flood (flooded paddy test), 62 g ai/ha, scale 0 to 100, 0 is no effect, 100 is complete control, 13 to 15 days, read-out: Plant response rating, Sedge, Umbrella
  pest or weed control at 62 g/ha: 65%
[3]; Flood (flooded paddy test), 125 g ai/ha, scale 0 to 100, 0 is no effect, 100 is complete control, 13 to 15 days, read-out: Plant response rating, Sedge, Umbrella
  pest or weed control at 125 g/ha: 80%
[4]; post-emergence, Postemergence, visual injury, 0 to 100 scale (0 no effect, 100 complete control), approx. ten days, read-out: Wheat plant response rating
  plant injury at 125 g/ha: 0%
[4]; post-emergence, Postemergence, 0 to 100 scale, 0 = no effect, 100 = complete control, approx. ten days, read-out: Plant response rating, Wheat
  plant injury at 500 g/ha: 60%
[4]; pre-emergence, Preemergence, 0 to 100 scale, 0 = no effect, 100 = complete control, read-out: Plant response rating, Wheat
  plant injury at 125 g/ha: 0%
[4]; pre-emergence, Preemergence, visual injury, 0 to 100 scale (0 no effect, 100 complete control), approx. ten days, read-out: Plant response rating, Wheat
  plant injury at 500 g/ha: 20%
[5]; post-emergence, Postemergence, visual injury, 0 to 100 scale (0 no effect, 100 complete control), approx. ten days, read-out: Foxtail, Giant plant response rating
  pest or weed control at 125 g/ha: 80%
[5]; post-emergence, Postemergence, 0 to 100 scale, 0 = no effect, 100 = complete control, approx. ten days, read-out: Plant response rating, Foxtail, Giant
  pest or weed control at 500 g/ha: 90%
[5]; pre-emergence, Preemergence, 0 to 100 scale, 0 = no effect, 100 = complete control, read-out: Plant response rating, Foxtail, Giant
  pest or weed control at 125 g/ha: 10%
[5]; pre-emergence, Preemergence, visual injury, 0 to 100 scale (0 no effect, 100 complete control), approx. ten days, read-out: Plant response rating, Foxtail, Giant
  pest or weed control at 500 g/ha: 70%
[6]; post-emergence, Postemergence, visual injury, 0 to 100 scale (0 no effect, 100 complete control), approx. ten days, read-out: Crabgrass, Large plant response rating
  pest or weed control at 125 g/ha: 70%
[6]; post-emergence, Postemergence, 0 to 100 scale, 0 = no effect, 100 = complete control, approx. ten days, read-out: Plant response rating, Crabgrass, Large
  pest or weed control at 500 g/ha: 90%
[6]; pre-emergence, Preemergence, 0 to 100 scale, 0 = no effect, 100 = complete control, read-out: Plant response rating, Crabgrass, Large
  pest or weed control at 125 g/ha: 20%
[6]; pre-emergence, Preemergence, visual injury, 0 to 100 scale (0 no effect, 100 complete control), approx. ten days, read-out: Plant response rating, Crabgrass, Large
  pest or weed control at 500 g/ha: 90%
[7]; post-emergence, Postemergence, visual injury, 0 to 100 scale (0 no effect, 100 complete control), approx. ten days, read-out: Pigweed plant response rating
  pest or weed control at 125 g/ha: 100%
[7]; post-emergence, Postemergence, 0 to 100 scale, 0 = no effect, 100 = complete control, approx. ten days, read-out: Plant response rating, Pigweed
  pest or weed control at 500 g/ha: 100%
[7]; pre-emergence, Preemergence, 0 to 100 scale, 0 = no effect, 100 = complete control, read-out: Plant response rating, Pigweed
  pest or weed control at 125 g/ha: 90%
[7]; pre-emergence, Preemergence, visual injury, 0 to 100 scale (0 no effect, 100 complete control), approx. ten days, read-out: Plant response rating, Pigweed
  pest or weed control at 500 g/ha: 90%
[8]; post-emergence, Postemergence, visual injury, 0 to 100 scale (0 no effect, 100 complete control), approx. ten days, read-out: Velvetleaf plant response rating
  pest or weed control at 125 g/ha: 100%
[8]; post-emergence, Postemergence, 0 to 100 scale, 0 = no effect, 100 = complete control, approx. ten days, read-out: Plant response rating, Velvetleaf
  pest or weed control at 500 g/ha: 100%
[8]; pre-emergence, Preemergence, 0 to 100 scale, 0 = no effect, 100 = complete control, read-out: Plant response rating, Velvetleaf
  pest or weed control at 125 g/ha: 40%
[8]; pre-emergence, Preemergence, visual injury, 0 to 100 scale (0 no effect, 100 complete control), approx. ten days, read-out: Plant response rating, Velvetleaf
  pest or weed control at 500 g/ha: 100%
[9]; post-emergence, Postemergence, visual injury, 0 to 100 scale (0 no effect, 100 complete control), approx. ten days, read-out: Barnyardgrass plant response rating
  pest or weed control at 125 g/ha: 90%
[9]; post-emergence, Postemergence, 0 to 100 scale, 0 = no effect, 100 = complete control, approx. ten days, read-out: Plant response rating, Barnyardgrass
  pest or weed control at 500 g/ha: 100%
[9]; pre-emergence, Preemergence, 0 to 100 scale, 0 = no effect, 100 = complete control, read-out: Plant response rating, Barnyardgrass
  pest or weed control at 125 g/ha: 10%
[9]; pre-emergence, Preemergence, visual injury, 0 to 100 scale (0 no effect, 100 complete control), approx. ten days, read-out: Plant response rating, Barnyardgrass
  pest or weed control at 500 g/ha: 70%
Corn (Zea mays); post-emergence, Postemergence, 125 g ai/ha, visual injury, 0 to 100 scale (0 no effect, 100 complete control), approx. ten days, read-out: Corn plant response rating
  plant injury at 125 g/ha: 10%
Corn (Zea mays); post-emergence, Postemergence, 0 to 100 scale, 0 = no effect, 100 = complete control, approx. ten days
  Corn plant response rating (crop injury, 0 = no effect, 100 = complete kill) at 500 g/ha: 50%
Corn (Zea mays); pre-emergence, Preemergence, 125 g ai/ha, 0 to 100 scale, 0 = no effect, 100 = complete control
  Corn plant response rating (crop injury, 0 = no effect, 100 = complete kill) at 125 g/ha: 0%
Corn (Zea mays); pre-emergence, Preemergence, visual injury, 0 to 100 scale (0 no effect, 100 complete control), approx. ten days
  Corn plant response rating (crop injury, 0 = no effect, 100 = complete kill) at 500 g/ha: 20%
[10]; post-emergence, Postemergence, visual injury, 0 to 100 scale (0 no effect, 100 complete control), approx. ten days, read-out: Morningglory plant response rating
  pest or weed control at 125 g/ha: 100%
[10]; post-emergence, Postemergence, 0 to 100 scale, 0 = no effect, 100 = complete control, approx. ten days, read-out: Plant response rating, Morningglory
  pest or weed control at 500 g/ha: 100%
[10]; pre-emergence, Preemergence, 0 to 100 scale, 0 = no effect, 100 = complete control, read-out: Plant response rating, Morningglory
  pest or weed control at 125 g/ha: 0%
[10]; pre-emergence, Preemergence, visual injury, 0 to 100 scale (0 no effect, 100 complete control), approx. ten days, read-out: Plant response rating, Morningglory
  pest or weed control at 500 g/ha: 70%
[11]; Hordeum vulgare, post-emergence, 31 g ai/ha, scale 0 to 100 (0 no effect, 100 complete control), read-out: Plant response rating, Barley
  plant injury at 31 g/ha: 0%
[11]; Hordeum vulgare, post-emergence, 62 g ai/ha, scale 0 (no effect) to 100 (complete control), 13 to 15 days, read-out: Plant response rating, Barley
  plant injury at 62 g/ha: 0%
[11]; Hordeum vulgare, post-emergence, 125 g ai/ha, scale 0 to 100 (0 no effect, 100 complete control), 13 to 15 days, read-out: Plant response rating, Barley
  plant injury at 125 g/ha: 0%
[11]; 250 g ai/ha, scale 0 to 100
  Barley plant response rating: 10
